A short description of the series: TIMS collisional cross section (CCS, N2) of the lipid ion; higher = larger ion cross section. As to conditions: ionization mode: positive, one isomer drawn.

From the supplement of paper PMC6965134 come the findings set out here.

The structures appear in SMILES notation. ± gives the standard deviation of the averaged measurements.

As for `CCCCCCCC/C=C\CCCCCCCC(=O)O[C@@H](CO)COC(=O)CCCCCCCCCCCCC` [DG 14:0_18:1_0:0] (ion (formula + adduct): [C35H66O5+NH4] 1+), the “TIMS collisional cross section” value (sample type: plasma) is 255.9 Å². Regarding `CCCCCCC/C=C\CCCCCCCC(=O)OC[C@@H](COC(=O)CCCCCCCCCCCCC)OC(=O)CCCCCCCCCCCCCCC` [TG 14:0_16:0_17:1] (ion (formula + adduct): [C50H94O6+NH4] 1+), the “TIMS collisional cross section” value (sample type: HeLa) came to 309.1 Å² and the “TIMS collisional cross section” value (sample type: Liver) stood at 309 Å². Regarding `CCCCCCCC/C=C\CCCCCCCCCC(=O)O[C@H](COC(=O)CCCCCCCCCCCCCCCCC)COP(=O)(O)OCCN` [PE 18:0_20:1] (ion (formula + adduct): [C43H84NO8P+H] 1+), the “TIMS collisional cross section” value (sample type: Liver) came out at 289.3 Å². For `CC/C=C\C/C=C\C/C=C\C/C=C\C/C=C\CCCCCC(=O)OC[C@@H](COC(=O)CCCCCCCCCCCCCCC)OC(=O)CCCCCCC/C=C\CCCCCCC` [TG 16:0_17:1_22:5] (ion (formula + adduct): [C58H100O6+NH4] 1+), the “TIMS collisional cross section” value (sample type: HeLa) is given as 325.4 Å². For the compound `CCCCCCCCCCCCC/C=C/[C@@H](O)[C@H](CO[C@@H]1O[C@H](CO)[C@@H](O)C(O)C1O)NC(=O)CCCCCCCCCCCCCCCCCCCCCCC` (some centres not stated) [GlcCer d18:1_24:0@] (ion (formula + adduct): [C48H93NO8+H] 1+), the “TIMS collisional cross section” value runs as follows: (sample type: HeLa) 304.2 Å²; (sample type: Liver) 304.1 Å². The corresponding values for `CCCCC/C=C\C/C=C\C/C=C\C/C=C\CCCC(=O)O[C@H](COC(=O)CCCCCCCCCCCCCCCCC)COP(=O)(O)OCCN` [PE 18:0_20:4@] (ion (formula + adduct): [C43H78NO8P+H] 1+) are 284.1 Å² and 283.9 ± 0.37 Å². For the compound `CCCCC/C=C\C/C=C\CCCCCCCC(=O)O[C@H](COC(=O)CCCCCCCCCCCCCCCC)COP(=O)([O-])OCC[N+](C)(C)C` [PC 17:0@_18:2] (ion (formula + adduct): [C43H82NO8P+H] 1+), the “TIMS collisional cross section” value (sample type: Liver) is recorded as 288.1 Å².

With `CCCCCCCC/C=C\CCCCCCCCCC(=O)O[C@H](COC(=O)CCCCCCC/C=C\CCCCCCCC)COC(=O)CCCCCCCCCCCCCCCCCCCCC` [TG 18:1_20:1_22:0] (ion (formula + adduct): [C63H118O6+NH4] 1+), the “TIMS collisional cross section” value by setting is: (sample type: HeLa) 344.7 Å²; (sample type: Liver) 345.8 Å². For the compound `CC/C=C\C/C=C\C/C=C\C/C=C\CCCCC(=O)OC[C@@H](COC(=O)CCCCCCC/C=C\C/C=C\CCCCC)OC(=O)CCCC/C=C\C/C=C\C/C=C\CCCCC` [TG 18:2_18:3_18:4] (ion (formula + adduct): [C57H92O6+NH4] 1+), the “TIMS collisional cross section” value (sample type: Liver) is given as 314.3 Å².

Consider `CCCCC/C=C\C/C=C\C/C=C\C/C=C\CCCCCC(=O)OC[C@@H](COC(=O)CCCCCCC/C=C\CCCCCCCC)OC(=O)CCCCCCC/C=C\C/C=C\CCCCC` [TG 18:1_18:2_22:4] (ion (formula + adduct): [C61H104O6+NH4] 1+), for which the “TIMS collisional cross section” value is reported as 332.5 Å² (sample type: Liver) and 332.1 Å² (sample type: plasma).

Turning to `CCCCC/C=C\C/C=C\C/C=C\C/C=C\CCCCCC(=O)O[C@H](COCCCCCCCCCCCCCCCC)COP(=O)([O-])OCC[N+](C)(C)C` [PC O- 16:0@_22:4] (ion (formula + adduct): [C46H86NO7P+H] 1+), the “TIMS collisional cross section” value (sample type: plasma) is 296.3 Å². On to `CCCCCCCCCCCCCC(=O)O[C@H](COC(=O)CCCCCCCCCCC)COP(=O)([O-])OCC[N+](C)(C)C` [PC 12:0@_14:0] (ion (formula + adduct): [C34H68NO8P+H] 1+), for which the “TIMS collisional cross section” value (sample type: HeLa) is recorded as 266.9 Å². On the same count and under the same terms, for `CCCCCCCCCCCCCCC(=O)OC[C@@H](COC(=O)CCCCCCCCCCCCC)OC(=O)CCCCCCCCCCCCC` [TG 14:0_14:0_15:0] (ion (formula + adduct): [C46H88O6+NH4] 1+) the value was 297.1 Å². Turning to `CCCCCCCCCCCCCCCCCCCCCC(=O)OC[C@@H](COC(=O)CCCCCCCCCCCCCCC)OC(=O)CCCCCCCCCCCCCCCC` [TG 16:0_17:0_22:0] (ion (formula + adduct): [C58H112O6+NH4] 1+), the “TIMS collisional cross section” value reads like this: (sample type: Liver) 335 Å²; (sample type: plasma) 334.9 ± 0.42 Å². In the case of `CCCCCCCCCCCCCCCCCC(=O)O[C@H](CO)COP(=O)(O)OCCN` [LPE 18:0] (ion (formula + adduct): [C23H48NO7P+H] 1+), the “TIMS collisional cross section” value reads like this: (sample type: HeLa) 221.7 Å²; (sample type: Liver) 222 Å².

For the compound `CCCCCCCC/C=C\CCCCCCCC(=O)OC[C@@H](COC(=O)CCCCCCCCCCCCCCC)OC(=O)CCCCCCC/C=C\CCCCCCCC` [TG 16:0_18:1_18:1] (ion (formula + adduct): [C55H102O6+NH4] 1+), the “TIMS collisional cross section” value was determined as 322 Å² (sample type: HeLa), 322.4 Å² (sample type: Liver) and 322.45 ± 0.21 Å² (sample type: plasma). As for `CCCCC/C=C\C/C=C\CCCCCCCC(=O)O[C@H](COC(=O)CCCCCCCCCCCCCCCCCCC)COP(=O)(O)OCCN` [PE 20:0@_18:2] (ion (formula + adduct): [C43H82NO8P+H] 1+), where the note is “sample type: Liver”, the “TIMS collisional cross section” value is listed as 286.3 Å². Regarding `CC/C=C\C/C=C\C/C=C\CCCCCCCC(=O)OC[C@@H](COC(=O)CCCCCCC/C=C\CCCCCCCC)OC(=O)CCCCCCC/C=C\C/C=C\CCCCC` [TG 18:1_18:2_18:3] (ion (formula + adduct): [C57H98O6+NH4] 1+), the “TIMS collisional cross section” value (sample type: plasma) is 319.9 Å². In the case of `CCCCCC/C=C\CCCCCCCCCC(=O)O[C@H](COC(=O)CCCCCCCCCCCCCCC)COP(=O)(O)OC[C@H](N)C(=O)O` [PS 16:0_18:1@] (ion (formula + adduct): [C40H76NO10P+H] 1+), the “TIMS collisional cross section” value (sample type: HeLa) is given as 282.1 Å².

As to `C12CC[C@@]3([H])C(C)(C)[C@@H](O)CC[C@]3(C)C=1CC[C@]1(C)[C@@]([H])([C@@](C)([H])CC/C=C(\C)/C)CC[C@@]21C=O` [32-oxolanosterol] (ion (formula + adduct): [C30H48O2+H] 1+), the “TIMS collisional cross section” value (sample type: HeLa) is 211.6 Å². Turning to `CCCCCC/C=C\CCCCCCCC(=O)O[C@@H](COC(=O)CCCCCCC/C=C\CCCCCCCC)COC(=O)CCCCCCCCCCCCCCC` [TG 16:0_16:1_18:1] (ion (formula + adduct): [C53H98O6+NH4] 1+), the “TIMS collisional cross section” value came out at 315.9 Å² (sample type: HeLa), 315.95 ± 0.53 Å² (sample type: Liver) and 315.8 ± 0.27 Å² (sample type: plasma). `CC/C=C\C/C=C\C/C=C\C/C=C\C/C=C\CCCCCC(=O)O[C@@H](CO)COC(=O)CCCCCCC/C=C\C/C=C\CCCCC` [DG 18:2_22:5_0:0] (ion (formula + adduct): [C43H70O5+NH4] 1+): the “TIMS collisional cross section” value (sample type: Liver) is reported as 266.9 Å².

`CCCCC/C=C\C/C=C\C/C=C\C/C=C\CCCCCC(=O)OC[C@@H](COC(=O)CCCCCCCCCCCCCCC)OC(=O)CCCCCCC/C=C\C/C=C\CCCCC` [TG 16:0_18:2_22:4] (ion (formula + adduct): [C59H102O6+NH4] 1+): the “TIMS collisional cross section” value by setting is: (sample type: Liver) 328 Å²; (sample type: plasma) 327.9 Å². With `CC/C=C\C/C=C\C/C=C\C/C=C\C/C=C\C/C=C\CCC(=O)OC[C@@H](COC(=O)CCCCCCC/C=C\CCCCCC)OC(=O)CCCCCCCCCCCCCCCCC` [TG 16:1_18:0_22:6] (ion (formula + adduct): [C59H100O6+NH4] 1+), the “TIMS collisional cross section” value (sample type: HeLa) is on record as 327.7 Å². Turning to `CCCCCCCC/C=C\CCCCCCCCCCCC(=O)O[C@@H](CO)COC(=O)CCCCCCCCCCCCCCC` [DG 16:0_22:1_0:0] (ion (formula + adduct): [C41H78O5+NH4] 1+), the “TIMS collisional cross section” value (sample type: HeLa) is 276.3 Å². The same measure, in the same setting: in the case of `CCCCCCCC/C=C\CCCCCCCC(=O)O[C@H](COC(=O)CCCCCCCCCCCCCCC)COP(=O)([O-])OCC[N+](C)(C)C` [PC 16:0_18:1] (ion (formula + adduct): [C42H82NO8P+Na] 1+) it was 288.7 Å². Regarding `CCCC/C=C\CCCCCCCC(=O)OC[C@H](COC(=O)CCCCCCC/C=C\C/C=C\CCCCC)OC(=O)CCCCCCC/C=C\CCCCCCC` [TG 14:1_17:1_18:2] (ion (formula + adduct): [C52H92O6+NH4] 1+), the “TIMS collisional cross section” value (sample type: plasma) was 308.6 Å². For the compound `CC/C=C\C/C=C\C/C=C\C/C=C\C/C=C\C/C=C\CCC(=O)OC[C@H](COP(=O)(O)OCCN)OC(=O)CCCCCCC/C=C\CCCCCCCC` [PE 22:6_18:1@] (ion (formula + adduct): [C45H76NO8P+H] 1+), under “sample type: HeLa”, the “TIMS collisional cross section” value is 281.9 Å². `CCCCCCCCCCCCCCCCCCCCCC(=O)OC[C@@H](COC(=O)CCCCCCCCCCCCCCCCC)OC(=O)CCCCCCCCCCCCCCCCCCC` [TG 18:0_20:0_22:0] (ion (formula + adduct): [C63H122O6+NH4] 1+): the “TIMS collisional cross section” value was found to be 349.3 Å² (sample type: Liver) and 349.1 Å² (sample type: plasma). For the compound `CCCCC/C=C\C/C=C\CCCCCCCC(=O)OC[C@@H](COC(=O)CCCCCCCCCCCCCCCCC)OC(=O)CCCCCCC/C=C\CCCCCCCC` [TG 18:0_18:1_18:2] (ion (formula + adduct): [C57H104O6+NH4] 1+), the “TIMS collisional cross section” value is recorded as 325.1 Å² (sample type: HeLa), 326.4 Å² (sample type: Liver) and 326.25 ± 0.49 Å² (sample type: plasma). As to `CCCCC/C=C\C/C=C\CCCCCCCCCCCC(=O)OC[C@@H](O)COP(=O)([O-])OCC[N+](C)(C)C` [LPC 22:2] (ion (formula + adduct): [C30H58NO7P+H] 1+), the “TIMS collisional cross section” value (sample type: plasma) was 242 Å². As for `CCCCC/C=C\C/C=C\CCCCCCCC(=O)O[C@H](COC(=O)CCCCCCC/C=C\CCCCCCCC)COC(=O)CCCCCCCCCCCCCCCCCCC` [TG 18:1_18:2_20:0] (ion (formula + adduct): [C59H108O6+NH4] 1+), the “TIMS collisional cross section” value (sample type: Liver) is reported as 332.3 Å².
